This note sets out measurements from ChEMBL document CHEMBL3886639, “2,5-disubstituted-pyridyl nicotinic ligands, and methods of use thereof” (2016).

Broadly, the Ki is a measure of affinity in units of concentration, obtained from inhibition or displacement.

The experiment can be described thus: [3H]-Epibatidine Radioligand Binding Assay: Briefly, cultured cells at >80% confluence were removed from their flasks (80 cm^2) with a disposable cell scraper and placed in 10 mL of 50 mM Tris.HCl buffer (pH 7.4, 4 °C.). The cell suspension was centrifuged at 10,000×g for 5 min and the pellet was collected. The cell pellet was then homogenized in 10 mL buffer with a polytron homogenizer and centrifuged at 36,000 g for 10 min at 4 °C. The membrane pellet was resuspended in fresh buffer, and aliquots of the membrane preparation were used for binding assays. The concentration of [3H]-epibatidine used was ~500 pM for competition binding assays. […] Bound and free ligands were separated by vacuum filtration through Whatman GF/C filters treated with 0.5% polyethylenimine. The filter-retained radioactivity was measured by liquid scintillation counting. Specific binding was defined as the difference between total binding and nonspecific binding. Data from competition binding assays were analyzed using Prism 5 (GraphPad Software, San Diego, Calif.).

With `CCCCC#Cc1cnc(C(F)(F)F)c(OC[C@@H]2CCN2)c1`, the Ki was greater than 100 µM.
